Laboratory results: article PMC9079959, “Substituted spirooxindole derivatives as potent anticancer agents through inhibition of phosphodiesterase 1” (RSC Advances, 2018)
Where “and” joins values, the source holds several entries; their conditions need not be identical. Equal entries are not always repeated. Where two headings read alike, the source gives them in different places.

How the values were obtained:
phosphodiesterase 1 = assay type: biochemical, snake
Method: A phosphodiesterase I inhibition assay was performed using snake venom according to a previously reported method with minute variations. Briefly, 33 mM Tris–HCl buffer of pH 8.8 (97 μl), 30 mM magnesium acetate with an enzyme concentration of 0.000742 U well^−1 and 0.33 mM bis-(p-nitrophenyl) phosphate (Sigma N-3002, 60 μl) as substrate were taken. […] After a pre-incubation period of 30 min, the enzyme with the test samples was observed spectrophotometrically for enzyme activity on a microtiter plate reader at 37 °C by following the rate of change in OD min^−1 at 410 nm of the p-nitrophenol released from p-nitrophenyl phosphate. All assays were processed in triplicate.[47]

Vero-B cells = assay: MTT cytotoxicity assay, normal cells Vero-B; assay type: cell-based, African green monkey; conditions: Chlorocebus sabaeus, Vero B, 48 h
Method: (§1) The cytotoxic activity of the compounds was tested against different mammalian cancer cells, prostate carcinoma cells (PC-3), hepatocellular carcinoma (HepG2) and colon cancer cells (HCT-116). African green monkey kidney cells (Vero-B) were used as normal cells to study the selectivity towards the cancer cells. The cell lines were obtained from the American Type Culture Collection (ATCC). The cells were cultivated at 37 °C and 10% CO2 in DMEM (Lonza, Germany) medium supplemented with 10% fetal bovine serum (Lonza, Germany), 100 IU ml^−1 penicillin and 100 μg ml^−1 streptomycin (Lonza, Germany). […] The spirooxindole derivatives were solubilized in DMSO and stored at −20 °C. The viability of the cells was quantified using 3-(4,5-dimethylthiazol-2-yl)-2,5-diphenyl tetrazolium bromide (MTT), which measures the activity of mitochondrial succinate dehydrogenase in viable cells.[45,46]
(§2) The cells were seeded in 96-well plates at a concentration of 5 × 10^4 cells per ml (100 μl per well). […] DMSO was used as a negative control (0.1%). The cells were incubated for 48 h. After that, 15 μl of MTT (5 mg ml^−1 in PBS) was added to each well and incubated for another 4 h. The formazan crystals were solubilized by 100 μl of acidified SDS solution (10% SDS/0.01 N HCl in PBS). The absorbance was measured after 14 h of incubation at 37 °C and under 5% CO2 at 570 nm by using a BioTek microplate reader. Each experiment was repeated 3 times and a standard deviation was calculated (SD±). […] The growth of the cells was monitored and the images were acquired by Gx microscopes (GXMGXD202 Inverted Microscope) at 10× magnification.

PC-3 cells = assay: MTT cytotoxicity assay, prostate cancer cell line PC-3; assay type: cell-based; conditions: for IC50: Homo sapiens, PC-3, MTT, 48 h
Method: as §1, §2

HCT-116 cells = assay: MTT cytotoxicity assay, colorectal cancer cell line HCT-116; assay type: cell-based; conditions: for IC50: Homo sapiens, HCT-116, MTT, 48 h; for SI (selectivity index): IC50 normal (VERO-B) / IC50 cancer (HCT-116)
Method: as §1, §2

HepG2 cells = assay: MTT cytotoxicity assay, hepatocellular carcinoma HepG2; assay type: cell-based; conditions: for IC50: Homo sapiens, HepG2, MTT, 48 h
Method: as §1, §2

[1] = ± SD of 3 experiments, read-out: PC-3 (IC50)
[2] = read-out: PC-3 (IC50, μg ml^−1)
[3] = ± SD of 3 experiments, read-out: HCT-116 (IC50)
[4] = read-out: HCT-116 (IC50, μg ml^−1)
[5] = ± SD of 3 experiments, read-out: HepG2 (IC50)
[6] = read-out: HepG2 (IC50, μg ml^−1)

Row | Compound | IC50 (phosphodiesterase 1; positive control) [µM] | melting point [°C] | IC50 (Vero-B cells) [µM] | IC50 (PC-3 cells; [1]) [µM] | IC50 (PC-3 cells; [2]) [µg/mL] | inhibitory activity against phosphodiesterase enzyme (phosphodiesterase 1; at 2 μM) [%] | IC50 (HCT-116 cells; [3]) [µM] | IC50 (HCT-116 cells; [4]) [µg/mL] | SI (selectivity index) (HCT-116 cells) | IC50 (HepG2 cells; [5]) [µM] | IC50 (HepG2 cells; [6]) [µg/mL] | SI (selectivity index) (PC-3 cells; IC50 normal (VERO-B) / IC50 cancer (PC-3)) | SI (selectivity index) (HepG2 cells; IC50 normal (VERO-B) / IC50 cancer (HepG2))
1 | O=C(O)CN(CCN(CC(=O)O)CC(=O)O)CC(=O)O [EDTA, reference compound] | 274 ± 0.007 |  |  |  |  |  |  |  |  |  |  |  | 
2 | O=C(c1c[nH]c2ccccc12)[C@@H]1C(c2ccc(Cl)cc2Cl)[C@@H]2CCCN2[C@@]12C(=O)Nc1ccccc12 (stereo partly drawn) [4d, (2′R,3S,7a′S)-1′-(2,4-Dichlorophenyl)-2′-(1H-indole-3-carbonyl)-1′,2′,5′,6′,7′,7a′-hexahydrospiro[indoline-3,3′-pyrrolizin]-2-one] |  | 149 to 151 | 9 | 2 ± 0.125 | 1 | 74.2 | 9 ± 0.6 | 4.6 | > 1 and 1 | 2 ± 0.1 | 1 |  | 
3 | O=C(c1c[nH]c2ccccc12)[C@@H]1C(c2cccs2)[C@@H]2CCCN2[C@@]12C(=O)Nc1ccccc12 (stereo partly drawn) [4l, (2′R,3S,7a′S)-2′-(1H-Indole-3-carbonyl)-1′-(thiophen-2-yl)-1′,2′,5′,6′,7′,7a′-hexahydrospiro[indoline-3,3′-pyrrolizin]-2-one] |  | 157 to 159 | 60 | 29 ± 3 | 13 |  | 50 ± 3.5 | 22.7 | 1.2 | 50 ± 3 | 22.7 | 2.1 | 1.2
